Converted amounts (≈) assume the structure as drawn.
Experiments:
Format in all cases: functional
[1] = test system: Staphylococcus epidermidis; test: Antibacterial activity against Staphylococcus epidermidis ATCC 12228 at 30 ug/disk after 18 to 24 hr by disk diffusion method
Pseudomonas fluorescens [2] = test: Antibacterial activity against Pseudomonas fluorescens ATCC 49838 at 30 ug/disk after 18 to 24 hr by disk diffusion method
Bacillus cereus [3] = test: Antibacterial activity against Bacillus cereus ATCC 11778 at 30 ug/disk after 18 to 24 hr by disk diffusion method
Klebsiella pneumoniae [4] = test: Antibacterial activity against Klebsiella pneumoniae ATCC 13883 at 30 ug/disk after 18 to 24 hr by disk diffusion method
Enterococcus faecalis [5] = test: Antibacterial activity against Enterococcus faecalis ATCC 29212 at 30 ug/disk after 18 to 24 hr by disk diffusion method
Staphylococcus aureus [6] = test: Antibacterial activity against Staphylococcus aureus ATCC 25923 at 30 ug/disk after 18 to 24 hr by disk diffusion method
Candida albicans [7] = test: Antifungal activity against Candida albicans ATCC 90028 at 30 ug/disk after 18 to 24 hr by disk diffusion method
Candida albicans [8] = test: Antifungal activity against Candida albicans ATCC 90028 after 18 to 24 hr by broth microdilution method
Bacillus subtilis [9] = test: Antibacterial activity against Bacillus subtilis ATCC 6633 at 30 ug/disk after 18 to 24 hr by disk diffusion method
Pseudomonas aeruginosa [10] = test: Antibacterial activity against Pseudomonas aeruginosa ATCC 27853 at 30 ug/disk after 18 to 24 hr by disk diffusion method
Klebsiella aerogenes [11] = test: Antibacterial activity against Enterobacter aerogenes ATCC 13048 at 30 ug/disk after 18 to 24 hr by disk diffusion method
Escherichia coli [12] = test: Antibacterial activity against Escherichia coli ATCC 25922 at 30 ug/disk after 18 to 24 hr by disk diffusion method
Bacillus subtilis [13] = test: Antibacterial activity against Bacillus subtilis ATCC 6633 at 140 ug/disk after 18 to 24 hr by disk diffusion method; details: read-out: DIZ
Candida albicans [14] = test: Antifungal activity against Candida albicans ATCC 90028 at 140 ug/disk after 18 to 24 hr by disk diffusion method; details: read-out: DIZ
Bacillus cereus [15] = test: Antibacterial activity against Bacillus cereus ATCC 11778 after 18 to 24 hr by broth microdilution method
[16] = test system: Staphylococcus epidermidis; test: Antibacterial activity against Staphylococcus epidermidis ATCC 12228 at 140 ug/disk after 18 to 24 hr by disk diffusion method; details: read-out: DIZ
Enterococcus faecalis [17] = test: Antibacterial activity against Enterococcus faecalis ATCC 29212 after 18 to 24 hr by broth microdilution method
Escherichia coli [18] = test: Antibacterial activity against Escherichia coli ATCC 25922 after 18 to 24 hr by broth microdilution method
Staphylococcus aureus [19] = test: Antibacterial activity against Staphylococcus aureus ATCC 25923 after 18 to 24 hr by broth microdilution method
Klebsiella pneumoniae [20] = test: Antibacterial activity against Klebsiella pneumoniae ATCC 13883 after 18 to 24 hr by broth microdilution method
Pseudomonas aeruginosa [21] = test: Antibacterial activity against Pseudomonas aeruginosa ATCC 27853 at 140 ug/disk after 18 to 24 hr by disk diffusion method; details: read-out: DIZ
Bacillus subtilis [22] = test: Antibacterial activity against Bacillus subtilis ATCC 6633 after 18 to 24 hr by broth microdilution method
Bacillus cereus [23] = test: Antibacterial activity against Bacillus cereus ATCC 11778 at 140 ug/disk after 18 to 24 hr by disk diffusion method; details: read-out: DIZ
Escherichia coli [24] = test: Antibacterial activity against Escherichia coli ATCC 25922 at 140 ug/disk after 18 to 24 hr by disk diffusion method; details: read-out: DIZ
Pseudomonas fluorescens [25] = test: Antibacterial activity against Pseudomonas fluorescens ATCC 49838 at 140 ug/disk after 18 to 24 hr by disk diffusion method; details: read-out: DIZ
Enterococcus faecalis [26] = test: Antibacterial activity against Enterococcus faecalis ATCC 29212 at 140 ug/disk after 18 to 24 hr by disk diffusion method; details: read-out: DIZ
[27] = test system: Staphylococcus epidermidis; test: Antibacterial activity against Staphylococcus epidermidis ATCC 12228 after 18 to 24 hr by broth microdilution method
Pseudomonas fluorescens [28] = test: Antibacterial activity against Pseudomonas fluorescens ATCC 49838 after 18 to 24 hr by broth microdilution method
Klebsiella pneumoniae [29] = test: Antibacterial activity against Klebsiella pneumoniae ATCC 13883 at 140 ug/disk after 18 to 24 hr by disk diffusion method; details: read-out: DIZ
Pseudomonas aeruginosa [30] = test: Antibacterial activity against Pseudomonas aeruginosa ATCC 27853 after 18 to 24 hr by broth microdilution method
Klebsiella aerogenes [31] = test: Antibacterial activity against Enterobacter aerogenes ATCC 13048 at 140 ug/disk after 18 to 24 hr by disk diffusion method; details: read-out: DIZ
Staphylococcus aureus [32] = test: Antibacterial activity against Staphylococcus aureus ATCC 25923 at 140 ug/disc after 18 to 24 hr by disk diffusion method; details: read-out: DIZ
Klebsiella aerogenes [33] = test: Antibacterial activity against Enterobacter aerogenes ATCC 13048 after 18 to 24 hr by broth microdilution method

Compound: NYSTATIN
- inhibition zone (IZ) [1]: 0 mm
- inhibition zone (IZ) (Pseudomonas fluorescens [2]): 0 mm
- inhibition zone (IZ) (Bacillus cereus [3]): 0 mm
- inhibition zone (IZ) (Klebsiella pneumoniae [4]): 0 mm
- inhibition zone (IZ) (Enterococcus faecalis [5]): 0 mm
- inhibition zone (IZ) (Staphylococcus aureus [6]): 0 mm
- inhibition zone (IZ) (Candida albicans [7]): 18 mm
- MIC (Candida albicans [8]): 0.125 µg/mL
- inhibition zone (IZ) (Bacillus subtilis [9]): 0 mm
- inhibition zone (IZ) (Pseudomonas aeruginosa [10]): 0 mm
- inhibition zone (IZ) (Klebsiella aerogenes [11]): 0 mm
- inhibition zone (IZ) (Escherichia coli [12]): 0 mm

Compound: O=S(=O)(NCCO)c1ccccc1
- zone of inhibition at 140 µg/disc (Bacillus subtilis [13]): 0 mm
- zone of inhibition at 140 µg/disc (Candida albicans [14]): 0 mm
- MIC (Bacillus cereus [15]): > 2000 µg/mL
- zone of inhibition at 140 µg/disc [16]: 0 mm
- MIC (Enterococcus faecalis [17]): > 2000 µg/mL
- MIC (Escherichia coli [18]): 1000 µg/mL (≈ 4.97 mM)
- MIC (Staphylococcus aureus [19]): > 2000 µg/mL
- MIC (Klebsiella pneumoniae [20]): 1000 µg/mL (≈ 4.97 mM)
- zone of inhibition at 140 µg/disc (Pseudomonas aeruginosa [21]): 0 mm
- MIC (Bacillus subtilis [22]): 1000 µg/mL (≈ 4.97 mM)
- zone of inhibition at 140 µg/disc (Bacillus cereus [23]): 0 mm
- zone of inhibition at 140 µg/disc (Escherichia coli [24]): 0 mm
- zone of inhibition at 140 µg/disc (Pseudomonas fluorescens [25]): 0 mm
- zone of inhibition at 140 µg/disc (Enterococcus faecalis [26]): 0 mm
- MIC [27]: > 2000 µg/mL
- MIC (Pseudomonas fluorescens [28]): 1000 µg/mL (≈ 4.97 mM)
- zone of inhibition at 140 µg/disc (Klebsiella pneumoniae [29]): 0 mm
- MIC (Candida albicans [8]): 1000 µg/mL (≈ 4.97 mM)
- MIC (Pseudomonas aeruginosa [30]): 1000 µg/mL (≈ 4.97 mM)
- zone of inhibition at 140 µg/disc (Klebsiella aerogenes [31]): 0 mm
- zone of inhibition at 140 µg/disc (Staphylococcus aureus [32]): 0 mm
- MIC (Klebsiella aerogenes [33]): 1000 µg/mL (≈ 4.97 mM)

Reference: ChEMBL document CHEMBL3044670, “Aromatic sulfonyl hydrazides and sulfonyl hydrazones: antimicrobial activity and physical properties” (2013)
